Broadly, the solubility (kinetic) is the concentration staying in solution when a stock, usually in DMSO, is diluted into the medium.

≈ marks a conversion by molar mass, not a printed value.

One series can be described thus: Kinetic solubility of compound by measuring concentration at pH 7.4 in saturated PBS buffer by UV LCMS/MS using calibration curves. The assay has been performed by Enamine biological services, Bienta Ltd.The protocol is publicly available: dx.doi.org/10.17504/protocols.io.j8nlk8y41l5r/v1. The settings on record: PBS buffer. The series is classed as physicochemical.
Molecule `NCc1cccc(NC(=O)C[C@H](NC(=O)OCc2ccccc2)c2ccc(OCc3ccccc3)c(Br)c2)c1` registered a solubility (kinetic) of 21 µM (≈ 12.4 µg/mL).

`O=C(Nc1cc(Cl)cc(C(=O)Nc2cccc(-n3nn[nH]c3=O)c2)c1)OCc1ccccc1`: the solubility (kinetic) worked out at 107 µM (≈ 49.7 µg/mL).

With `CC(C)NC(=O)[C@H](Nc1ccc2c(c1)CNC2)c1cc(Cl)cc2[nH]ncc12`, the solubility (kinetic) turned out to be 311 µM (≈ 119 µg/mL).

On to `O=C1Cc2c(cc(F)cc2C(=O)Nc2ccc3c(c2)CNC3)N1`, for which the kinetic solubility is 368 µM (≈ 115 µg/mL).

On to `COc1cc(-c2cc(NC(=O)c3cc(F)cc4[nH]ncc34)cc3c2CNC3)ccn1`, for which the solubility (kinetic) was 180 µM (≈ 72.6 µg/mL).

Turning to `Cn1c(=O)[nH]c2c(C(=O)Nc3ccc4c(c3)CNC4)cc(Br)cc21`, the solubility (kinetic) is 161 µM (≈ 62.3 µg/mL).

For `COCc1cc(Cl)cc([C@H](Nc2ccc3c(c2)CNC3)C(=O)NCC(F)F)c1`, the solubility (kinetic) is 192 µM (≈ 78.7 µg/mL).

In turn, `N#Cc1cc2c(cc1NC(=O)c1cc(F)cc3[nH]ncc13)CNC2` came in with a kinetic solubility of 191 µM (≈ 61.4 µg/mL).

Molecule `O=C(Nc1ccc2c(c1)CNC2)c1cc(F)cc(-c2cn[nH]c2)c1` yielded a solubility (kinetic) of 185 µM (≈ 59.6 µg/mL).

As for `O=C(Nc1ccc2c(c1)CNC2)c1cc(F)cc2c1CCC2`, the kinetic solubility stood at 187 µM (≈ 55.4 µg/mL).

Take `COc1ccc(-c2nc3c(C(=O)Nc4ccc5c(c4)CNC5)cc(F)cc3[nH]2)nn1`: the kinetic solubility worked out at 16 µM (≈ 6.47 µg/mL).

For `O=C(Nc1ccc2c(c1)CNC2)c1cc(Cl)cc2ccncc12`, the kinetic solubility amounted to 181 µM (≈ 58.6 µg/mL).

For the molecule `O=C(NCC(F)(F)F)c1cc(Cl)c(F)cc1NS(=O)(=O)c1ccc(Oc2ccccc2Cl)cc1`, the solubility (kinetic) was 14 µM (≈ 7.52 µg/mL).

`O=C(Nc1cc2c(cc1C1CC1)CNC2)c1cc(F)cc2[nH]ncc12` registered a solubility (kinetic) of 189 µM (≈ 63.6 µg/mL).

As to `NCc1cccc(NC(=O)[C@@H](NC(=O)OCc2ccccc2)c2ccc(OCc3ccccc3)cc2)c1`, the solubility (kinetic) was found to be 23 µM (≈ 11.4 µg/mL).

`O=C(NCC(F)F)[C@H](Nc1ccc2c(c1)CNC2)c1cc(Cl)cc2ccoc12`: the solubility (kinetic) came out at 187 µM (≈ 75.9 µg/mL).

Molecule `CC[C@@H](Cc1nnn[nH]1)c1ccc(NC(=O)c2cc(Cl)cc(NC(=O)OCc3ccccc3)c2)cc1` yielded a solubility (kinetic) of 60 µM (≈ 30.3 µg/mL).

In the case of `O=C(O)c1cc(Cl)c(F)cc1S(=O)(=O)Nc1ccc(Oc2ccccc2Cl)cc1`, the solubility (kinetic) turned out to be 396 µM (≈ 181 µg/mL).

With `CCc1cc(C(=O)Nc2cccc(CN)c2)sc1-c1ccc(Cl)cc1`, the kinetic solubility was found to be 7 µM (≈ 2.6 µg/mL).

The same series, now with this note: buffer.
With `N#Cc1cc2c(cc1NC(=O)c1cc(F)cc3[nH]ncc13)CNC2`, the “Solubility (mean)” value turned out to be 193 µM (≈ 62 µg/mL).

Take `O=C(Nc1ccc2c(c1)CNC2)c1cc(F)cc(-c2cn[nH]c2)c1`: the “Solubility (mean)” value was found to be 184 µM (≈ 59.3 µg/mL).
